Patent US20180353512A1, “COMBINATION THERAPIES FOR TREATING B-CELL MALIGNANCIES” (GILEAD SCIENCES, INC., priority 2015, published 2018)

Assays:
Assay in all cases: ATPLite anti-proliferation assay (GI) and synergy score, 120 h
Type in all cases: cell-based
Granta-519 cells = system: Granta-519 cells
Description: (§1) The endpoint readout of the anti-proliferation assay was based upon quantitation of ATP as an indicator of viable cells. Cells were thawed from a liquid nitrogen preserved state. Once cells had been expanded and divided at their expected doubling times, screening began. Cells were seeded in growth media in black 384-well tissue culture treated plates at 500 cells per well (except where noted in Analyzer). Cells were equilibrated in assay plates via centrifugation and placed in incubators attached to the Dosing Modules at 37° C. for twenty-four hours before treatment. […] These Tzero (T0) plates were read using ultra-sensitive luminescence on Envision Plate Readers. Treated assay plates were incubated with the compound for one hundred twenty hours. After one hundred twenty hours, plates were developed for endpoint analysis using ATPLite. All data points were collected via automated processes; quality controlled; and analyzed using Horizon CombinatoRx proprietary software. Assay plates were accepted if they pass the following quality control standards: relative luciferase values were consistent throughout the entire experiment, Z-factor scores were greater than 0.6, untreated/vehicle controls behaved consistently on the plate.
(§2) Horizon Discovery utilized Growth Inhibition (GI) as a measure of cell viability. The cell viability of vehicle was measured at the time of dosing (T0) and after one hundred twenty hours (T120). A GI reading of 0% represented no growth inhibition—cells treated with compound and T120 vehicle signals were matched. […] A GI 200% represents complete death of all cells in the culture well. Compounds reaching an activity plateau of GI 200% were considered cytotoxic. Horizon CombinatoRx calculates GI by applying the following test and equation: […]
(§3) To measure combination effects in excess of Loewe additivity, Horizon Discovery has devised a scalar measure to characterize the strength of synergistic interaction termed the Synergy Score. The Synergy Score was calculated as:
(§4) Synergy Score=log fx log fyΣmax(0,Idata)(Idata−ILoewe)
(§5) The fractional inhibition for each component agent and combination point in the matrix was calculated relative to the median of all vehicle-treated control wells. The Synergy Score equation integrated the experimentally-observed activity volume at each point in the matrix in excess of a model surface numerically derived from the activity of the component agents using the Loewe model for additivity. Additional terms in the Synergy Score equation (above) were used to normalize for various dilution factors used for individual agents and to allow for comparison of synergy scores across an entire experiment. The inclusion of positive inhibition gating or an Idata multiplier removed noise near the zero effect level, and biased results for synergistic interactions at that occur at high activity levels.
(§6) The cell viability of vehicle was measured at the time of dosing (T0) and after 120 h (T120). […] To measure combination effects, excess of Loewe additivity was used to characterize the strength of synergistic interaction, termed the synergy score. The assay and synergy score analysis were performed in accordance with the protocol set forth in Example 1B above.

JMP-1 cells = system: JMP-1 cells
Description: as §1, §2, §3, §4, §5, §6

JVM-13 cells = system: JVM-13 cells
Description: as §1, §2, §3, §4, §5, §6

JVM-2 cells = system: JVM-2 cells
Description: as §1, §2, §3, §4, §5, §6

Jeko-1 cells = system: Jeko-1 cells
Description: as §1, §2, §3, §4, §5, §6

Maver-1 cells = system: Maver-1 cells
Description: as §1, §2, §3, §4, §5, §6

Mino cells = system: Mino cells
Description: as §1, §2, §3, §4, §5, §6

PF-1 cells = system: PF-1 cells
Description: as §1, §2, §3, §4, §5, §6

PF-2 cells = system: PF-2 cells
Description: as §1, §2, §3, §4, §5, §6

Rec-1 cells = system: Rec-1 cells
Description: as §1, §2, §3, §4, §5, §6

Z-138 cells = system: Z-138 cells
Description: as §1, §2, §3, §4, §5, §6

Carnaval cells = system: Carnaval cells
Description: as §1, §2, §3, §4, §5, §6
(§7) The assay and synergy score analysis were performed in accordance with the protocol set forth in Example 3A above.

HBL-1 cells = system: HBL-1 cells
Description: as §1, §2, §3, §4, §5, §6, §7

OCI-Ly3 cells = system: OCI-Ly3 cells
Description: as §1, §2, §3, §4, §5, §6, §7

OCI-Ly4 cells = system: OCI-Ly4 cells
Description: as §1, §2, §3, §4, §5, §6, §7

Pfeiffer cells = system: Pfeiffer cells
Description: as §1, §2, §3, §4, §5, §6, §7

Ri-1 cells = system: Ri-1 cells
Description: as §1, §2, §3, §4, §5, §6, §7

SU-DHL-10 cells = system: SU-DHL-10 cells
Description: as §1, §2, §3, §4, §5, §6, §7

SU-DHL-2 cells = system: SU-DHL-2 cells
Description: as §1, §2, §3, §4, §5, §6, §7

SU-DHL-6 cells = system: SU-DHL-6 cells
Description: as §1, §2, §3, §4, §5, §6, §7

SU-DHL-8 cells = system: SU-DHL-8 cells
Description: as §1, §2, §3, §4, §5, §6, §7

TMD-8 cells = system: TMD-8 cells
Description: as §1, §2, §3, §4, §5, §6, §7

U2932 cells = system: U2932 cells
Description: as §1, §2, §3, §4, §5, §6, §7

U2973 cells = system: U2973 cells
Description: as §1, §2, §3, §4, §5, §6, §7

Row | SMILES | Max. Effect (% GI) (Granta-519 cells) | Max. Effect (% GI) (JMP-1 cells) | Max. Effect (% GI) (JVM-13 cells) | Max. Effect (% GI) (JVM-2 cells) | Max. Effect (% GI) (Jeko-1 cells) | Max. Effect (% GI) (Maver-1 cells) | Max. Effect (% GI) (Mino cells) | Max. Effect (% GI) (PF-1 cells) | Max. Effect (% GI) (PF-2 cells) | Max. Effect (% GI) (Rec-1 cells) | Max. Effect (% GI) (Z-138 cells) | Max. Effect (% GI) (Carnaval cells) | Max. Effect (% GI) (HBL-1 cells) | Max. Effect (% GI) (OCI-Ly3 cells) | Max. Effect (% GI) (OCI-Ly4 cells) | Max. Effect (% GI) (Pfeiffer cells) | Max. Effect (% GI) (Ri-1 cells) | Max. Effect (% GI) (SU-DHL-10 cells) | Max. Effect (% GI) (SU-DHL-2 cells) | Max. Effect (% GI) (SU-DHL-6 cells) | also measured
1 | CC#CC(=O)N1CC[C@@H](n2c(=O)n(-c3ccc(Oc4ccccc4)cc3)c3c(N)ncnc32)C1 [Compound B, 6-amino-9-[(3R)-1-(2-butynoyl)-3-pyrrolidinyl]-7-(4-phenoxyphenyl)-7,9-dihydro-8H-purin-8-one] | 22 | 14 | 15 | 91 | 37 | 45 | 35 | 9 | 25 | 111 | 11 | 0 | 65 | 0 | 25 | 8 | 48 | 0 | 18 | 24 | Max. Effect (% GI) (SU-DHL-8 cells): 1 % GI; Max. Effect (% GI) (TMD-8 cells): 98 % GI; Max. Effect (% GI) (U2932 cells): 81 % GI; Max. Effect (% GI) (U2973 cells): 14 % GI
2 | CCC(Nc1ncnc2[nH]cnc12)c1nc2cccc(F)c2c(=O)n1-c1ccccc1 (stereo not drawn) [Idelalisib, 2-(1-((9H-Purin-6-yl)amino)propyl)-5-fluoro-3-phenylquinazolin-4(3H)-one] | 72 | 69 | 92 | 146 | 73 | 48 | 34 | 29 | 113 | 163 | 11 | 62 | 29 | 20 | 194 | 33 | 78 | 0 | 8 | 110 | Max. Effect (% GI) (SU-DHL-8 cells): 43 % GI; Max. Effect (% GI) (TMD-8 cells): 155 % GI; Max. Effect (% GI) (U2932 cells): 61 % GI; Max. Effect (% GI) (U2973 cells): 85 % GI
